Reference: US20250213547A1, “METHODS OF TREATING NEUROLOGICAL DISEASES” (priority 2022, published 2025)

Key:
[1] = Source text: The datasets from the clinical trials described above were used in a population PK and PK/PD modeling analysis. Three PK samples were excluded from the analyses because their baseline values were over the limit of quantification. The ELEKTRA dataset contained 69 single-dose and 270 steady-state dose events. Individual variables from those studies were included in the dataset to determine significant covariates and their effect size. Subject variables included the study ID, patient ID, treatment, health status, and DEE disease type. Baseline demographic variables included age, body weight, body mass index, gender, race, and Chinese or Asian ethnic origin. Baseline laboratory variables included aspartate aminotransferase (AST), gamma-glutamyl transferase (GGT), alkaline phosphatase (ALP), bilirubin, creatinine, albumin, alpha-1-acid glycoprotein (A1-AGLP), estimated glomerular filtration rate (eGFR), and creatinine clearance (CrCl)) (see formulas in example 12). […] Another variable was the type of antiepileptic drugs patients were on concomitantly during the trial.
The dataset included 2193 observations from 173 subjects. Both PK and PK/PD parameters were analyzed as a mixed-effects population model using the computer program NONMEM. A mixed-effects model takes into account fixed value parameters and random-effect parameters. The first stage of the analysis began with using only data obtained from the oral solution studies in a structural and statistical base model to account for concentration changes over time and for between and within subject variability. Several different structural model types were tested and the structure of the omega complex was optimized. Omega, expressed as random effects variance, represents the difference between an individual's parameter value and the population value and describes the distribution of between subject variability across the population. The linear two-compartment model incorporates delayed first-order absorption from oral administration. Model parameters were absorption lag time (ALAG1), bioavailability (F1), elimination clearance (CL), absorption rate constant (KA), central volume (V2), inter-compartmental clearance (Q), and peripheral volume (V3). Random effects were estimated for F1, KA, Q, and V3. The omega matrix was restricted to a diagonal structure, wherein between parameter correlations are ignored. A combined additive and proportional residue error model was utilized to broadly reflect […].
The second stage of the analysis added data collected from the tablet formulation studies in adults.
The third stage of the analysis added the pediatric data collected from the ELEKTRA study. A range of different formulations and administration procedures were used for the pediatric patients, including swallowed mini-tablets, tablets, and crushed tablets administered through a gastrostomy tube. […] Next variables were screened separately by correlating the individual random effects with the base model. An F-test was used to determine the significance of the individual random effects with and without the variable. Candidates were further screened using a standard forward inclusion (α<0.05), backward deletion (α<0.01) procedure.

[2] = system: seizure frequency in pediatric patients with Dravet syndrome or Lennox-Gastaut syndrome; assay: ELEKTRA: percent change in seizure frequency from baseline; type: in vivo, human; details: for Number of patients with 25% reduction in seizures (responders) / Number of patients with 50% reduction in seizures (responders) / Number of patients with 75% reduction in seizures (responders) / Number of patients with 100% reduction in seizures (responders): maintenance period; for Median percent change in seizure frequency from baseline / Range of percent change in seizure frequency from baseline / seizure frequency change from baseline versus placebo: ELEKTRA; for Median percent change in seizure frequency from baseline / Range of percent change in seizure frequency from baseline: N 64; for seizure frequency change from baseline versus placebo: pediatric DEE patients
Source text: Other inclusion criteria were body weight ≥10 kg, currently taking a fixed dosage of 1 to 4 antiseizure medications, and failure to remain seizure free after trying at least two antiseizure medications. Convulsive seizures include focal to bilateral tonic-clonic with impaired awareness, hemi-clonic, simultaneous bilateral clonic, and generalized tonic-clonic seizures. Drop seizures can involve the entire body, trunk, or head which leads to falling. […] Approximately 126 patients ages ≥2 and ≤17 years were enrolled in the study. The study included two main phases, a 4-6 week screening and baseline period, and a 20-week treatment period. Patients received doses twice a day in a tablet formulation. The starting dose was adjusted according to the patient's body weight (Table 17).
During the first 8 weeks of treatment patient dosing was a titrated for individual optimization. The remaining 12-weeks of treatment consisted of a maintenance phase. The study began with treating patients ≥9 years of age for one month before treating younger patients. Blood was collected for PK analysis on the first dosage day within one hour of the morning dose, and 30 minutes, and 1, 2, 3, and 4 hours post-dose. Subsequent blood sampling took place before the morning dose and 30 minutes post-dose. Blood samples were obtained at scheduled times for determining PK profile and Tmax, which is the time Cmax was reached. A patient's seizure frequency was recorded before and during the trial to calculate percent change from baseline.
The ELEKTRA study is described in the specification and in examples 12 and 13. […] Statistical significance was computed using a Rank Transformed Analysis of Covariance (ANCOVA) with a 2-side p-value, while adjusting for baseline seizure frequency and indication.

[3] = between subject variation as standard deviation
[4] = Dravet syndrome, Weeks 9-20, N 24

## O=C(c1cccnc1-c1ccncc1)N1CCC(O)(Cc2ccccc2)CC1 [soticlestat]
[1]; FIG. 21, reference ELEKTRA patient 100 mg BID
  simulated change in AUC with twice the dosage: 130%
[1]; [3]
  F1: BSV: 0.538
  KA: BSV: 1.1
  Q: BSV: 0.369
  V3: BSV: 0.559
[1]; covariate effect on ALAG1
  ALAG1: Non-OS formulation (%): 25.2%
[1]; covariate effect on CL
  CL: Patient (%): −24.4%
[1]; covariate effect on F1
  F1: A1-AGLP exponent: 0.739
  F1: weight exponent: −0.516
[1]; covariate effect on F1, fixed
  F1: Dose exponent: 0.204
[1]; covariate effect on KA
  KA: BMI exponent: 2.52
  KA: Strong Inducer (%): −73.7%
  KA: non-OS formulation (%): −45.7%
[1]; covariate effect on KA, fixed
  KA: Dose exponent: −0.753
[1]; covariate effect on Q, fixed
  Q: Dose exponent: −0.218
[1]; covariate effect on V3
  V3: Asian (%): −39.4%
  V3: eGFI exponent: −0.469
[1]; covariate effect on V3, fixed
  V3: Dose exponent: −0.214
[1]; final population PK model
  ALAG1 typical value: 0.131 h
  F1: BSV explained by A1-AGLP (%): 33.6%
  KA typical value: 7.49 h⁻¹
  Q typical value: 1.16 L/h
  V2 typical value: 2.99 L
  V3 typical value: 7.51 L
[1]; final population PK model, fixed
  F1 typical value: 0.0216
[1]; human
  CL typical value: 4.31 L/h
  estimated weight exponent on steady state AUC: 0.516
  typical value for CL/F: 150 L/h
[1]; population model
  typical value for V2/F (central volume distribution): 138.43 L
[2]; [4]
  Median percent change in convulsive seizure frequency per 28 days from baseline: −36.5%
  Range of percent change in convulsive seizure frequency per 28 days from baseline: (−100 to 84.1) %
[2]; Dravet syndrome, N 24
  Number of patients with 25% reduction in seizures (responders): 66.7
  Number of patients with 50% reduction in seizures (responders): 41.7
  Number of patients with 75% reduction in seizures (responders): 20.8
  Number of patients with 100% reduction in seizures (responders): 8.3
[2]; Weeks 0-20
  Median percent change in seizure frequency from baseline: −30.05%
  Range of percent change in seizure frequency from baseline: (−100-347.5) %
[2]; Weeks 9-20
  Median percent change in seizure frequency from baseline: −27.76%
  Range of percent change in seizure frequency from baseline: (−100 to 160.6) %
[2]; Lennox-Gastaut syndrome, Weeks 9-20, N 40
  Median percent change from baseline in drop seizure frequency per 28 days: −18.46%
[2]; Lennox-Gastaut syndrome, N 40
  Number of patients with 25% reduction in seizures (responders): 42.5
  Number of patients with 50% reduction in seizures (responders): 27.5
  Number of patients with 75% reduction in seizures (responders): 10
  Number of patients with 100% reduction in seizures (responders): 5
[2]
  seizure frequency change from baseline versus placebo: highly significant
[2]; listed as Soticlestat
  seizure frequency change from baseline versus placebo: significantly decreased seizure frequency
